What was measured:
Assay type in all cases: biochemical
KDM4E [1] = biological target: T1, KDM4E (Homo sapiens, UniProt B2RXH2); assay: KDM, RDM and hydroxylation (+16 Da) activities of KDM4E with histone peptide variants by MS; settings: MALDI–TOF or LC–MS, n = 3
T1 construct: KDM4E1–337; made in house; host or cells: E. coli
T1 sequence (B2RXH2 1-337): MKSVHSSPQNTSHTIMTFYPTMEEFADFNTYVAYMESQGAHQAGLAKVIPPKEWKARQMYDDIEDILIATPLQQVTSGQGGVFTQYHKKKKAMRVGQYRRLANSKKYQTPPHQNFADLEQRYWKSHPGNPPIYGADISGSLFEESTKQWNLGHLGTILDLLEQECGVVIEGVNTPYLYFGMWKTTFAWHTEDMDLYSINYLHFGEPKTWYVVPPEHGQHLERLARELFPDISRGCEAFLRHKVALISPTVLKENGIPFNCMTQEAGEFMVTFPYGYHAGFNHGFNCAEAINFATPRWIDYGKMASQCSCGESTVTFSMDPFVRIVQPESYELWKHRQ
Procedure: Fig. 3 KDM4E-catalysed hydroxylation occurs at Arg-20 on histone H2a peptide. a LC–MS/MS analysis of H2a(1–20) after KDM4E treatment. Two potential hydroxylation sites, R17 and R20, were identified, with the latter more likely (Supplementary Fig. 9). b Peptide variant studies support Arg-20 hydroxylation; specific activities: H2a(1–20), 0.65 nmol min^−1 mg^−1 SD: 0.073; H2a(1–20) with a C-terminal carboxylic acid (indicated with an -OH), no activity; H2a(1–20)R20A, no activity; H2a(1–20)R20K*, no activity; H2a(1–20)R20Kme3*, 0.44 nmol min^−1 mg^−1 SD: 0.04; H2a(1–20)R3me2a*, 0.51 nmol min^−1 mg^−1 SD: 0.05; H2a(1–20)R3A, 0.37 nmol min^−1 mg^−1 SD: 0.002; H2a(1–21)*, 0.65 nmol min^−1 mg^−1 SD 0.02; H2a(1–25, 0.35 nmol min^−1 mg^−1 SD: 0.044; and H2a(10–29), 0.02 nmol min^−1 mg^−1 SD: 0.013. Measurements employed MALDI–TOF MS except when labelled with*, which employed LC–MS (Supplementary Fig. 10 for representative MS data). n = 3 independent assays. c KDM, RDM and hydroxylation (+16 Da) activities of KDM4E are sequence and context dependent. Histone peptides (H2a, H3, H4) and variants (wild type residue in red, replaced with either K, Kme3, R or Rme2a) were incubated with KDM4E and analysed on MALDI–TOF MS. KDM, RDM and hydroxylation (+16 Da) were detected in some but not all peptides (Supplementary Fig. 10 for representative MS data). […]

KDM4E [2] = biological target: T1, KDM4E; assay: Specific hydroxylation activity of KDM4E; settings: for extent of hydroxylation (in words): KDM4E, relative to H2a(1–20)
Procedure: Fig. 3 KDM4E-catalysed hydroxylation occurs at Arg-20 on histone H2a peptide. a LC–MS/MS analysis of H2a(1–20) after KDM4E treatment. Two potential hydroxylation sites, R17 and R20, were identified, with the latter more likely (Supplementary Fig. 9). b Peptide variant studies support Arg-20 hydroxylation; specific activities: H2a(1–20), 0.65 nmol min^−1 mg^−1 SD: 0.073; H2a(1–20) with a C-terminal carboxylic acid (indicated with an -OH), no activity; H2a(1–20)R20A, no activity; H2a(1–20)R20K*, no activity; H2a(1–20)R20Kme3*, 0.44 nmol min^−1 mg^−1 SD: 0.04; H2a(1–20)R3me2a*, 0.51 nmol min^−1 mg^−1 SD: 0.05; H2a(1–20)R3A, 0.37 nmol min^−1 mg^−1 SD: 0.002; H2a(1–21)*, 0.65 nmol min^−1 mg^−1 SD 0.02; H2a(1–25, 0.35 nmol min^−1 mg^−1 SD: 0.044; and H2a(10–29), 0.02 nmol min^−1 mg^−1 SD: 0.013. Measurements employed MALDI–TOF MS except when labelled with*, which employed LC–MS (Supplementary Fig. 10 for representative MS data). n = 3 independent assays. c KDM, RDM and hydroxylation (+16 Da) activities of KDM4E are sequence and context dependent. Histone peptides (H2a, H3, H4) and variants (wild type residue in red, replaced with either K, Kme3, R or Rme2a) were incubated with KDM4E and analysed on MALDI–TOF MS. KDM, RDM and hydroxylation (+16 Da) were detected in some but not all peptides (Supplementary Fig. 10 for representative MS data). (−) No mass changes observed. n = 3 independent assays. See Supplementary Table 6 for conditions. TEXT PRINTED IN THE PICTURE: (c) H2a: K/R replacement K: -; K/R replacement Kme3: KDM/ROH; K/R replacement R: ROH; K/R replacement Rme2a: KDM/ROH | (c) H3: K/R replacement K: -; K/R replacement Kme3: KDM; K/R replacement R: -; K/R replacement Rme2a: RDM | (c) H4: K/R replacement K: -; K/R replacement Kme3: -; K/R replacement R: -; K/R replacement Rme2a: RDM DOUBTS OF THE COPYIST ABOUT THIS PICTURE: Panel c: the table cells are qualitative activity classes (KDM, RDM, ROH, -) for peptide variants, not numbers; it is uncertain whether they count as results. / Panel b: the bar chart prints no values beside the bars, so nothing was taken from it.
(§1) MS-based screening assays with peptides and calf thymus histones were as reported; see Supplementary Table 6 for conditions. Time course assays were based on reported procedures. In brief, equal volumes of the enzyme and substrate solutions were combined to initiate the reaction; 10 µL of 2% (v/v) formic acid (HCOOH) in ddH2O or 100% methanol was added to 10 µL of the reaction mixture to quench reactions at different time points. Unless otherwise stated, time course assays were carried out in triplicate. In some cases, LC–MS was used instead of MALDI-TOF MS to avoid a MALDI matrix induced artefact with the hydroxylated product (Supplementary Fig. 16).
Data collected from time course assay(s) were used to plot the % conversion vs time (min) using GraphPad Prism5 version 5.04; the resultant slopes were used to fit a line with linear regression to the first-order region of the reaction. The resultant gradient was then converted from % product formation min^−1 to amount of peptide converted (demethylation and / or hydroxylation) in µM.
Supplementary Figure 17 Comparison of specific hydroxylation activities of KD M4E with H2a(1–20) when anal ysed by MALDI-TO F MS or LC–MS. Comparison of specific activities for KDM4E catalysed hydroxylation of H2a(1–20) when analysed with MALDI-TOF MS or LC–MS ([…] SD: 0.073 and 0.65 nmol·min−1·mg− 1 SD: 0.01 respectively). n = 3 (independent assays). See Supplementary Table 6 for assay […]
(also on this page, place not known: KDM4E H2a(1 –20) analysed MALDI -TOF LC –MS nmol·min −1·mg−1 nmol·min−1·mg−1 0.8specific activity (nmol·min-1·mg-1)) […]
[ E nz ym e] [Peptide] [2OG] [Ascorbate] [(NH4)2F e(S O4)2] [TCEP] Buffer pH7.5 Enzyme Cognate substrate (mM) (mM) (mM) (mM) (mM) (mM) [HE PE S]
Supplementary Table 6 Summary of MS assay conditions for substrate screening. These conditions […]

KDM4E [3] = biological target: T1, KDM4E; assay: MALDI–TOF MS demethylation/+16 Da assay, KDM4E; settings: 60 min, 2 µM KDM4E, 10 µM peptide
From the text: Fig. 2 Histone H2a fragments are KDM5 and KDM4 substrates. […] See Supplementary Table 6 and Supplementary Fig. 2 for assay conditions and quantification, respectively. […] 0-minute MS spectrum in black, 60/90-minute spectrum in red.
as §1, with “16). […]” for “16).”
Supplementary Figure 2 Histone H2a peptide fragments are substrates of KDM4s and KDM5s.
2 for representative corresponding MALDI–TOF MS traces. Bar graphs comparing % product format ion (+16 Da and demethylation) of H2a(1–20)R3me2a by (a) K DM5 A–D (after 90 minutes) and (b) KDM4A–E ( a ft er 60 minutes), analysed by MALDI– TOF MS. n = (a) 2, (b) 3 (independent assays). See Supplementary Table 6 for assay condit ions. See Figure S13 A 1 for a positive control. […]

[4] = MALDI–TOF MS, mean of n = 3, SD: H2a(1–20) 0.073, R3A 0.002, H2a(1–25) 0.044, H2a(10–29) 0.013

mass shift (KDM4E [1]) | specific activity (hydroxylation) (KDM4E [2]; Figure 3b, LC–MS (*), replicate 1) | specific activity (hydroxylation) (KDM4E [2]; Figure 3b, LC–MS (*), replicate 2) | specific activity (hydroxylation) (KDM4E [2]; Figure 3b, LC–MS (*), replicate 3) | extent of hydroxylation (in words) (KDM4E [2]) | specific activity (hydroxylation) (KDM4E [2]; [4]) | +16 Da mass shift (hydroxylation) (KDM4E [1]) | specific activity (hydroxylation) (KDM4E [2]; Figure 3b, MALDI–TOF MS, replicate 1) | specific activity (hydroxylation) (KDM4E [2]; Figure 3b, MALDI–TOF MS, replicate 2) | +16 Da mass shift (KDM4E [3]) | Substance
no mass shift | 0 nmol/min/mg | 0 nmol/min/mg | 0 nmol/min/mg | no activity was observed | no activity |  |  |  |  | Ac - SGR GKQ GGKAR AKAKT R SSR - O H [H2a(1–20)-OH, H2a(1–20) with a C-terminal carboxylic acid]
 |  |  |  | lower | 0.35 nmol/min/mg | +16 Da mass shift | 0.3027 nmol/min/mg | 0.3905 nmol/min/mg |  | Ac - SGR GKQ GGKAR AKAKT R SSR AGL Q F [H2a(1–25)]
 |  |  |  |  |  |  |  |  | A +16 Da mass shift occurs | H2a(1–20)R3me1: H2a(1–20) mono-methylated at Arg-3
